Values joined by “and” are separate entries in the source; they are usually repeats but may differ in a detail not shown here. Equal values may be shown once.
These molecules were tested on Botrytis cinerea (assay: Fungicidal activity, fungicide growth rate method, BC). Conditions: Botrytis cinerea, 50 μg/mL; read-out: fungicidal activity (growth inhibition rate), BC.
Format: cell-based

| SMILES | inhibition at 50 µg/mL |
| --- | --- |
| C=CC[C@@H]1C[C@@]2(OC(C)=O)C[C@@H](CC=C)[C@H]3C[C@H]4O[C@H]4C[C@@]32O1 [Zyj07-67-1] | > 50% |
| C=CC[C@@H]1C[C@]2(O)CCO[C@@]23C[C@H](O)CC[C@H]13 [Zyj07-32] | 23% |
| C=CC[C@@H]1C[C@]2(O)CC(=O)O[C@@]23C[C@H]2O[C@H]2C[C@H]13 [Zyj07-13] | > 50% |

These molecules were tested on Alternaria solani (assay: Fungicidal activity, fungicide growth rate method, AS). Conditions: Alternaria solani, 50 μg/mL; read-out: fungicidal activity (growth inhibition rate), AS.
Format: cell-based

| SMILES | inhibition at 50 µg/mL |
| --- | --- |
| C=CC[C@@H]1C[C@@]2(OC(C)=O)C[C@@H](CC=C)[C@H]3C[C@H]4O[C@H]4C[C@@]32O1 [Zyj07-67-1] | 0% |
| C=CC[C@@H]1C[C@]2(O)CCO[C@@]23C[C@H](O)CC[C@H]13 [Zyj07-32] | > 60% |
| C=CC[C@@H]1C[C@]2(O)CC(=O)O[C@@]23C[C@H]2O[C@H]2C[C@H]13 [Zyj07-13] | 10% |

These molecules were tested on Rhizoctonia cerealis (assay: Fungicidal activity, fungicide growth rate method, RC). Conditions: Ceratobasidium cereale, 50 μg/mL; read-out: fungicidal activity (growth inhibition rate), RC.
Format: cell-based

| SMILES | inhibition at 50 µg/mL |
| --- | --- |
| C=CC[C@@H]1C[C@@]2(OC(C)=O)C[C@@H](CC=C)[C@H]3C[C@H]4O[C@H]4C[C@@]32O1 [Zyj07-67-1] | 0% |
| C=CC[C@@H]1C[C@]2(O)CCO[C@@]23C[C@H](O)CC[C@H]13 [Zyj07-32] | 39% |
| C=CC[C@@H]1C[C@]2(O)CC(=O)O[C@@]23C[C@H]2O[C@H]2C[C@H]13 [Zyj07-13] | 43% |

Each molecule was assayed on Physalospora piricola (assay: Fungicidal activity, fungicide growth rate method, PP). Conditions: 50 μg/mL; read-out: fungicidal activity (growth inhibition rate), PP.
Format: cell-based

| SMILES | inhibition at 50 µg/mL |
| --- | --- |
| C=CC[C@@H]1C[C@@]2(OC(C)=O)C[C@@H](CC=C)[C@H]3C[C@H]4O[C@H]4C[C@@]32O1 [Zyj07-67-1] | 31% |
| C=CC[C@@H]1C[C@]2(O)CC(=O)O[C@@]23C[C@H]2O[C@H]2C[C@H]13 [Zyj07-13] | 30% |

What follows are molecules tested on Ostrinia furnacalis (assay: Insecticidal activity against Ostrinia furnacalis). Conditions: Ostrinia furnacalis; 100 μg/mL; read-out: insecticidal activity, Ostrinia furnacalis.
Format: in vivo

| SMILES | pest or weed control at 100 µg/mL |
| --- | --- |
| C=CC[C@@H]1C[C@@]2(OC(C)=O)C[C@@H](CC=C)[C@H]3C[C@H]4O[C@H]4C[C@@]32O1 [Zyj07-67-1] | 5% |
| C=CC[C@@H]1C[C@]2(O)CCO[C@@]23C[C@H](O)CC[C@H]13 [Zyj07-32] | 0% |

These molecules were tested on Apis mellifera ligustica Spin (assay: not given). Conditions: dosage 2.73 μg a.i./bee.

| SMILES | Death rate after 48 h (%) |
| --- | --- |
| C=CC[C@@H]1C[C@]2(O)CCO[C@@]23C[C@H](O)CC[C@H]13 [Zyj07-32] | 10.0% |

Same assay, conditions: dosage 2.73 μg a.i./bee; per replicate of 10 bees

| SMILES | Death number after 24 h | Death number after 48 h |
| --- | --- | --- |
| C=CC[C@@H]1C[C@]2(O)CCO[C@@]23C[C@H](O)CC[C@H]13 [Zyj07-32] | 0 and 2 | 0 and 2 |

Same assay, conditions: dosage 10.0 μg a.i./bee

| SMILES | Death rate after 48 h (%) |
| --- | --- |
| C=CC[C@@H]1C[C@]2(O)CCO[C@@]23C[C@H](O)CC[C@H]13 [Zyj07-32] | 5.0% |

Same assay, conditions: dosage 10.0 μg a.i./bee; per replicate of 10 bees

| SMILES | Death number after 24 h | Death number after 48 h |
| --- | --- | --- |
| C=CC[C@@H]1C[C@]2(O)CCO[C@@]23C[C@H](O)CC[C@H]13 [Zyj07-32] | 0 | 1 and 0 |

Each molecule was assayed on Phytophthora infestans (Mont.) de Bary (assay: microbe, parasite or virus in culture). Conditions: Phytophthora infestans, read-out: fungicidal activity (growth inhibition rate), PI, 50 μg/mL.
Format: cell-based

| SMILES | inhibition at 50 µg/mL |
| --- | --- |
| C=CC[C@@H]1C[C@@]2(OC(C)=O)C[C@@H](CC=C)[C@H]3C[C@H]4O[C@H]4C[C@@]32O1 [Zyj07-67-1] | 32% |
| C=CC[C@@H]1C[C@]2(O)CCO[C@@]23C[C@H](O)CC[C@H]13 [Zyj07-32] | > 60% |
| C=CC[C@@H]1C[C@]2(O)CC(=O)O[C@@]23C[C@H]2O[C@H]2C[C@H]13 [Zyj07-13] | 0% |

The molecules below were run on Helicoverpa armigera (Hübner) (assay: Insecticidal activity against Helicoverpa armigera (Hübner)). Conditions: Helicoverpa armigera; 100 μg/mL; read-out: insecticidal activity, Helicoverpa armigera (Hübner).
Format: in vivo

| SMILES | pest or weed control at 100 µg/mL |
| --- | --- |
| C=CC[C@@H]1C[C@@]2(OC(C)=O)C[C@@H](CC=C)[C@H]3C[C@H]4O[C@H]4C[C@@]32O1 [Zyj07-67-1] | 10% |
| C=CC[C@@H]1C[C@]2(O)CCO[C@@]23C[C@H](O)CC[C@H]13 [Zyj07-32] | 0% |

These molecules were tested on Tobacco Mosaic Virus (assay: Anti-TMV inactivation activity on tobacco plants). Conditions: compound mixed with TMV solution 30 minutes, lesions checked three days later.
Format: in vivo
Design: concentration or dose not given beside the values

| SMILES | TMV inactivation (anti-TMV activity) |
| --- | --- |
| C=CC[C@@H]1C[C@@]2(OC(C)=O)C[C@@H](CC=C)[C@H]3C[C@H]4O[C@H]4C[C@@]32O1 [Zyj07-67-1] | 7% |
| C=CC[C@@H]1C[C@]2(O)CCO[C@@]23C[C@H](O)CC[C@H]13 [Zyj07-32] | 9% |
| C=CC[C@@H]1C[C@]2(O)CC(=O)O[C@@]23C[C@H]2O[C@H]2C[C@H]13 [Zyj07-13] | 11% |

Each molecule was assayed on Pellicularia sasakii (assay: Fungicidal activity, fungicide growth rate method, PS). Conditions: 50 μg/mL; read-out: fungicidal activity (growth inhibition rate), PS.
Format: cell-based

| SMILES | inhibition at 50 µg/mL |
| --- | --- |
| C=CC[C@@H]1C[C@@]2(OC(C)=O)C[C@@H](CC=C)[C@H]3C[C@H]4O[C@H]4C[C@@]32O1 [Zyj07-67-1] | 18% |
| C=CC[C@@H]1C[C@]2(O)CCO[C@@]23C[C@H](O)CC[C@H]13 [Zyj07-32] | 16% |
| C=CC[C@@H]1C[C@]2(O)CC(=O)O[C@@]23C[C@H]2O[C@H]2C[C@H]13 [Zyj07-13] | 6% |

Each molecule was assayed on Caenorhabditis elegans (assay: Insecticidal activity against Caenorhabditis elegans). Conditions: Caenorhabditis elegans, 100 μg/mL; read-out: insecticidal activity, Caenorhabditis elegans.
Format: in vivo

| SMILES | pest or weed control at 100 µg/mL |
| --- | --- |
| C=CC[C@@H]1C[C@]2(O)CCO[C@@]23C[C@H](O)CC[C@H]13 [Zyj07-32] | 20% |
| C=CC[C@@H]1C[C@]2(O)CC(=O)O[C@@]23C[C@H]2O[C@H]2C[C@H]13 [Zyj07-13] | 20% |

The molecules below were run on Cercospora arachidicola (assay: Fungicidal activity, fungicide growth rate method, CA). Conditions: Mycosphaerella arachidis, 50 μg/mL; read-out: fungicidal activity (growth inhibition rate), CA.
Format: cell-based

| SMILES | inhibition at 50 µg/mL |
| --- | --- |
| C=CC[C@@H]1C[C@@]2(OC(C)=O)C[C@@H](CC=C)[C@H]3C[C@H]4O[C@H]4C[C@@]32O1 [Zyj07-67-1] | 14% |
| C=CC[C@@H]1C[C@]2(O)CCO[C@@]23C[C@H](O)CC[C@H]13 [Zyj07-32] | > 50% |
| C=CC[C@@H]1C[C@]2(O)CC(=O)O[C@@]23C[C@H]2O[C@H]2C[C@H]13 [Zyj07-13] | 8% |

These molecules were tested on Mythimna separate (Walker) (assay: Insecticidal activity against Mythimna separate (Walker)). Conditions: Mythimna, 100 μg/mL; read-out: insecticidal activity, Mythimna separate (Walker).
Format: in vivo

| SMILES | pest or weed control at 100 µg/mL |
| --- | --- |
| C=CC[C@@H]1C[C@@]2(OC(C)=O)C[C@@H](CC=C)[C@H]3C[C@H]4O[C@H]4C[C@@]32O1 [Zyj07-67-1] | 20% |
| C=CC[C@@H]1C[C@]2(O)CCO[C@@]23C[C@H](O)CC[C@H]13 [Zyj07-32] | 0% |

What follows are molecules tested on wheat Gibberella zeae (assay: microbe, parasite or virus in culture). Conditions: Fusarium graminearum, read-out: fungicidal activity (growth inhibition rate), GZ, 50 μg/mL.
Format: cell-based

| SMILES | inhibition at 50 µg/mL |
| --- | --- |
| C=CC[C@@H]1C[C@@]2(OC(C)=O)C[C@@H](CC=C)[C@H]3C[C@H]4O[C@H]4C[C@@]32O1 [Zyj07-67-1] | 23% |
| C=CC[C@@H]1C[C@]2(O)CCO[C@@]23C[C@H](O)CC[C@H]13 [Zyj07-32] | 33% |
| C=CC[C@@H]1C[C@]2(O)CC(=O)O[C@@]23C[C@H]2O[C@H]2C[C@H]13 [Zyj07-13] | 14% |
